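These data come from cells grown in 96-well plates and exposed to compound for 48 hours at five concentrations. TGI marks complete inhibition of growth.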
Legend:
Assay in all cases: inhibition of tumour cell growth, NCI panel, 48 h
CAKI-1 renal = system: CAKI-1 renal
SNB-19 CNS = system: SNB-19 CNS
NCI-H23 lung = system: NCI-H23 lung
RXF 393 renal = system: RXF 393 renal
HCC-2998 colon = system: HCC-2998 colon
ACHN renal = system: ACHN renal
IGROV1 ovarian = system: IGROV1 ovarian
SK-MEL-2 melanoma = system: SK-MEL-2 melanoma
M14 melanoma = system: M14 melanoma
UACC-62 melanoma = system: UACC-62 melanoma

Row | SMILES | TGI (CAKI-1 renal) [µM] | TGI (SNB-19 CNS) [µM] | TGI (NCI-H23 lung) [µM] | TGI (RXF 393 renal) [µM] | TGI (HCC-2998 colon) [µM] | TGI (ACHN renal) [µM] | TGI (IGROV1 ovarian) [µM] | TGI (SK-MEL-2 melanoma) [µM] | TGI (M14 melanoma) [µM] | TGI (UACC-62 melanoma) [µM]
1 | Cc1c(C(=O)NNc2ccccc2)n2c(=S)[nH]nc2c2ccccc12 | > 100 | > 100 | > 100 | > 100 | > 100 | > 100 | > 100 | > 100 | > 100 | > 100
2 | Cc1nc2c(=O)n(-c3ccccc3)c(=O)n(-c3ccccc3)c2o1 | > 100 | > 100 | > 100 | > 100 | > 100 | > 100 | > 100 | > 100 | > 100 | > 100
3 | CCOC(=O)/C=C/CCC(C)(C)COC(C)=O | > 10 | > 10 | > 10 | > 10 | > 10 | > 10 | > 10 | > 10 | > 10 | > 10
4 | CCc1nc2c(c(N(C)C)c1C(=O)OC)CCc1ccccc1-2 | > 100 | > 100 | > 100 | 73.8 | 67.5 | > 100 | > 100 | 39.5 | 74.2 | 40.4
5 | NC(=O)c1ccc[n+](C2=C([O-])c3ccccc3C(=O)/C2=N\S(=O)(=O)c2ccccc2)c1 | 37.1 | 29.9 | 30.6 | 29.5 | 22.6 | 26.4 | 24.5 | 25.7 | 29.1 | 32.1
6 | COc1ccc(-c2cc3cc(Cl)cc(Cl)c3oc2=O)cc1OC | > 100 | > 100 | > 100 | 75.8 | > 100 | > 100 | > 100 | > 100 | > 100 | > 100
7 | CCOC(=O)[C@@H](Cc1ccc(CCl)cc1)NC(C)=O | 68.6 | 79.2 | 68.3 | 30.3 | 40.4 | 43.5 | 51.2 | 39.6 | 89.3 | 31.5
8 | CCOC(=O)c1csc(NC(=O)CCN2CCCC2)n1 | > 100 | > 100 | > 100 | > 100 | > 100 | > 100 | > 100 | > 100 | > 100 | > 100
9 | C/C(=C\CSCC(N)C(=O)O)CC/C=C(\C)CNc1ccccc1 (stereo not given) | > 100 | > 100 | > 100 | > 100 | > 100 | > 100 | > 100 | > 100 | > 100 | > 100
10 | CC(C)=CCC[C@@H](C)C1=C(Nc2ccccc2F)C(O)=C(C)C(=O)C1=O | 34.2 | > 100 | 36.1 | > 64.1 | 38.1 | 14.3 | > 39.1 | 42.1 | > 100 | 22.6
11 | COc1ccc(C2c3cc4c(cc3OC(Nc3ccccc3)C2C)OCO4)cc1 (stereo not given) | > 100 | > 100 | > 100 | > 100 | > 100 | > 100 | > 100 | > 100 | > 100 | > 100
12 | CC(C)=CCc1c(O)cc2oc(-c3ccc(O)cc3O)cc(=O)c2c1O | > 81.4 | > 100 | 58.2 | 64.8 | 35.1 | 77 | > 100 | 64.7 | > 77.9 | 34.6
13 | N#C/C(C(=O)NCc1ccccc1)=C(/N)N1CCCC1 | > 100 | > 100 | > 100 | > 100 | > 100 | > 100 | > 100 | > 100 | > 100 | > 100
14 | CC(C)(C)/C(O)=C\c1nc2cc(F)c(F)cc2[nH]c1=O | > 100 | > 100 | > 100 | > 100 | > 100 | > 100 | > 100 | > 100 | > 100 | > 100
15 | CN(C)/N=N/c1nc2c(c(=O)n(C)c(=O)n2C)n1CC1CO1 (stereo not given) | 38.9 | 78.2 | 25.1 | 15.8 | 25.3 | 41.9 | 29.9 | 23.1 | 32.6 | 24.8
16 | CCOC(=O)c1c(-c2ccccc2)c(OC)cn1C | > 10 | > 10 | > 10 | > 10 | > 10 | > 10 | > 10 | > 10 | > 10 | > 10

Row | SMILES | TGI (CAKI-1 renal) [µM] | TGI (SNB-19 CNS) [µM] | TGI (NCI-H23 lung) [µM] | TGI (RXF 393 renal) [µM] | TGI (HCC-2998 colon) [µM] | TGI (ACHN renal) [µM] | TGI (IGROV1 ovarian) [µM] | TGI (SK-MEL-2 melanoma) [µM] | TGI (M14 melanoma) [µM] | TGI (UACC-62 melanoma) [µM]
17 | Cc1cccc2c1CC(Cc1ccccc1C(=O)O)C2=O (stereo not given) | > 100 | > 100 | > 100 | > 100 | > 100 | > 100 | > 100 | > 100 | > 100 | > 100
18 | O=c1c2cc([N+](=O)[O-])ccc2oc2nc3n(c(=O)c12)CCCS3 | > 100 | > 100 | > 100 | > 100 | > 100 | > 100 | > 100 | > 100 | > 100 | > 100
19 | O=[N+]([O-])c1ccc(-c2csc(=[N+]3CCCCC3)s2)cc1 | > 100 | > 100 | 22.8 | > 100 | > 100 | > 100 | > 100 | 60.2 | > 100 | > 100
20 | Oc1ccccc1/C=N/N1C(=S)N(C23CC4CC(CC(C4)C2)C3)C(=Nc2ccccc2)C1=Nc1ccccc1 | > 100 | > 100 | > 100 | > 100 | > 100 | > 100 | > 100 | > 100 | > 100 | > 100
21 | Cc1cc(-c2ccccc2)nc2oc(=O)n(C)c12 | > 100 | > 100 | > 100 | > 100 | > 100 | > 100 | > 100 | > 100 | > 100 | > 100
22 | CC1=NN2C(=N)/C(=C/c3ccc(F)cc3)C(=O)N=C2S1 | > 100 | > 100 | > 100 | > 100 | > 100 | > 100 | > 100 | > 100 | > 100 | > 100
23 | C[C@H]1[C@H](C)CC[C@]2(C(=O)OC3OC(CO)C(O)C(O)C3O)CC[C@]3(C)C(=CC[C@@H]4[C@@]5(C)C[C@@H](O)[C@@H]6OC(=O)c7cc(O)c(O)c(O)c7-c7c(cc(O)c(O)c7O)C(=O)OC[C@@]6(CO)[C@@H]5CC[C@]43C)[C@H]12 (stereo not given in full) | > 100 | > 100 | > 100 | > 100 | > 100 | > 100 | > 100 | > 100 | > 100 | > 100
24 | CC1=C(C)SC(=C2Sc3c(n(C)c(=O)n(C)c3=O)S2)S1 | > 100 | > 100 | > 100 | > 100 | > 100 | > 100 | > 100 | 79.1 | > 100 | > 100
25 | NC(=O)NN=C1Cc2ccccc2C1 | > 100 | > 100 | > 100 | > 100 | > 100 | > 100 | > 100 | > 100 | > 100 | > 100
26 | O=C1Nc2cc(F)ccc2C1=O | > 100 | > 100 | > 100 | > 100 | > 100 | > 100 | > 100 | > 100 | > 100 | > 100
27 | O=C([C@H](O)[C@@H](O)c1cccc(Cl)c1)C12CC3CC(CC(C3)C1)C2 | 3.98 | 4.07 | 3.84 | 3.98 | 4.15 | 3.56 | 2.68 | 4.24 | 7.16 | 3.32
28 | CC/C=N\N1C(N)=C(C#N)C(C#N)(C#N)C1CC (stereo not given) | > 100 | > 100 | > 100 | > 100 | > 100 | > 100 | > 100 | > 100 | > 100 | > 100
29 | CC1(C)C=C(/C=C2/N(S(=O)(=O)C(F)(F)F)C(/C=C3/N(S(=O)(=O)C(F)(F)F)C(C)(C#N)CC3(C)C)=CC2(C)C)N=C1/C=C1/CC(C)(C)C(=O)N1 (stereo not given) | > 100 | > 100 | > 100 | 81.3 | > 100 | > 100 | 62.9 | > 100 | > 100 | 69.1
30 | CCC1(CC)C(=O)N(C(=O)c2cc(OC)c(OC)c(OC)c2)N(C(=O)c2cc(OC)c(OC)c(OC)c2)C1=O | > 50 | > 50 | > 50 | > 50 | > 50 | > 50 | > 50 | > 50 | > 50 | > 50
31 | CSc1nc(=O)c2nc(-c3cccs3)c(-c3cccs3)nc2n1C | > 100 | > 100 | > 100 | 59.6 | > 100 | > 100 | > 100 | > 100 | > 100 | > 100
